Laboratory results: patent US11793823B2, “Compounds and pharmaceutical uses thereof” (SyneuRx International (Taiwan) Corp., priority 2020, dated 2023)
Where two headings read alike, the source gives them in different places.

Experiments:
[1] = target: human D-amino acid oxidase (hDAAO) (Homo sapiens (Human), UniProt P14920); assay: In vitro human D-amino acid oxidase (hDAAO) activity, D-Serine/Amplex Red fluorescence; assay type: biochemical; conditions: D-Serine substrate, 20 min
Outline: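 Recombinant hDAAO activity with D-serine as substrate; H2O2 was coupled via HRP to Amplex Red and fluorescence read at ex 530/em 590 nm at 0 and 20 min, dark, room temperature, Tris pH 8.5 with FAD. Inhibition came from the 20–0 min signal change relative to DMSO, and IC50 from nonlinear fits of 3-fold dilutions run in triplicate.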

MK-801 treated mice [2] = assay: Open field test, MK-801 induced hyper-locomotion; assay type: in vivo; conditions: for relief of MK801-induced hyperactivity: MK-801 0.2 mg/kg i.p., open field
Method: (§1) C57BL/6J male mice were group housed (3-5 mice per cage) with food and water available ad libitum in polysulfone ventilated cages (Alternative Design, AR, USA) in the animal room of SyneuRx. The colony was maintained on a 12/12-h light/dark cycle at the temperature of 22±2° C. and all behavioral studies were performed during the dark cycle. All animals used in this study were adult mice (at least 2.5 months of age). All animal procedures were performed according to the protocols approved by Institutional Animal Care and Use Committee (IACUC).
(§2) The mice were randomly assigned into five groups for open field test, Group 1: vehicle control, Group 2: MK-801, Group 3: Compound 66 at 10 mg/kg+MK-801, Group 4: Compound 66 at 30 mg/kg+MK-801, Group 5: Compound 66 at 100 mg/kg+MK-801. Mice at Group 2-5 received an acute administration of MK-801 (Sigma-Aldrich USA), a NMDA receptor antagonist, dissolved in normal saline, at 0.2 mg/kg for open field. For pre-pulse inhibition (PPI) test, animal was randomly assigned for four groups, Group 1: vehicle control, Group 2: MK-801, Group 3: Compound 66 at 3 mg/kg+MK-801, Group 4: Compound 66 at 10 mg/kg. Group 2-4 was received 0.3 mg/kg, MK-801. MK-801 was administrated by i.p. injection 20 minutes prior to open field and PPI tests. Test article, compound 66 (dissolved in ddH2O with 65% PEG400 and 10% DMSO), was orally treated 20 minutes prior to the MK-801 administration.
The open field task is a common measurement of novelty induced exploratory behavior and general activity in both mice and rats. The objective of this experiment was to evaluate the efficacy of compound 66 on attenuating the MK-801 induced hyper-locomotion. In this study, the mice were placed in a Plexiglas cage (37.5 cm×21.5 cm×18 cm) under 50-65 lux light intensity. Their spontaneous locomotor activities were measured for 60 minutes using the Photobeam Activity System (PAS)-open field (San Diego Instruments, San Diego, CA, USA). The total number of photo beam breaks of each mouse was measured as an index of locomotion activity.
as §2, with “74” for “66”, “field test.” for “field.”
(§3) All mice were tested with open field and pre-pulse inhibition tasks. The open field and pre-pulse inhibition tasks were used to evaluate the efficacy of the compound 74 on attenuating the MK-801 induced hyper-locomotion and deficit of sensorimotor gating function in mice, respectively. The apparatus and recording method of open field and pre-pulse inhibition task were as described above in Example 45.
Mice at Group 2-5 received an acute administration of MK-801 (Sigma-Aldrich USA), a NMDA receptor antagonist, dissolved in normal saline, at 0.2 mg/kg for open field test. […] Group […] was received 0.3 mg/kg, MK-801. MK-801 was administrated by i.p. injection 20 minutes prior to open field and PPI tests.
The open field task is a common measurement of novelty induced exploratory behavior and general activity in both mice and rats. […] In this study, the mice were placed in a Plexiglas cage (37.5 cm×21.5 cm×18 cm) under 50-65 lux light intensity. […]

MK-801 treated mice [3] = assay: Pre-pulse inhibition (PPI) test, MK-801 induced deficit of sensorimotor gating; assay type: in vivo; conditions: MK-801 0.3 mg/kg i.p.
Method: as §1, §2
Pre-pulse inhibition, using SR-LAB startle apparatus (San Diego Instruments, San Diego, CA, USA), was used to determine the efficacy of compound 66 on attenuating the MK-801 induced deficit of sensorimotor gating function in mice. Under 65 dB background noise, each session was composed of a 5-minute accumulation period followed by 64 trials in four blocks. The pulse alone (PA) trial was a 40 ms, 120 dB white noise burst. In the prepulse (pp)+pulse trials, a 20 ms white noise prepulse stimuli of 71 dB (pp6), 75 dB (pp10), and 83 dB (pp18) were presented 100 ms before a 40 ms 120 dB pulse. The non-stimulus (NS) trials presented the background noise only. The initial and the last blocks were composed of six PA trials, respectively. Two middle blocks consisted of PA, pp+pulse, and NS trials. These trials were presented pseudo-randomly and separated by intertribal intervals of 15 seconds on average (varying between 10 to 20 s). The percentage of prepulse inhibition was evaluated by the following formula: % PPI=100×[(PA score)−(pp-P score)]/(PA score), where the PA score was the average of the PA value in the middle blocks.
as §2, with “74” for “66”, “field test.” for “field.”
as §3, with “45. […]” for “45.”

SARS-CoV-2 3CLPro = SARS-CoV-2 3CLPro (Severe acute respiratory syndrome coronavirus 2 (2019-nCoV) (SARS-CoV-2), UniProt P0DTD1); assay: biochemical; conditions: final DMSO concentration 2%

Chain of human D-amino acid oxidase (hDAAO) (P14920 whole entry): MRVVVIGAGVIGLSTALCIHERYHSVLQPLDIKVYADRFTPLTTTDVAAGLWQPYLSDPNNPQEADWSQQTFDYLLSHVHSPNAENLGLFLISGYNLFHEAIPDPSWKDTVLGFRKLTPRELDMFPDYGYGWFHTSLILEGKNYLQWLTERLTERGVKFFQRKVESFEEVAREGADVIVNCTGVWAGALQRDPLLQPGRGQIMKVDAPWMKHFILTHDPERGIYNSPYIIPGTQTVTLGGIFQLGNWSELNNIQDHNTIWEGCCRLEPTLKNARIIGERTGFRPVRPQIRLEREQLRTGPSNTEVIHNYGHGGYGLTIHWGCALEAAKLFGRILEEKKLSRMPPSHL

Row | Compound | IC50 [1] [nM] | effect on MK-801 induced hyper-locomotion vs MK-801 group (MK-801 treated mice [2]; 30 mg/kg and 100 mg/kg oral) | effect on MK-801 induced hyper-locomotion vs MK-801 group (MK-801 treated mice [2]; low dose 10 mg/kg oral) | relief of MK801-induced hyperactivity (MK-801 treated mice [2]; middle (30 mg/kg) and high dose (100 mg/kg) oral as worded) [%] | effect on pre-pulse inhibition vs MK-801 group (MK-801 treated mice [3]; 75 dB and 83 dB pre-pulse, 10 mg/kg oral) | IC50 (SARS-CoV-2 3CLPro; read-out: IC50) [nM] | IC50 (SARS-CoV-2 3CLPro; read-out: IC50 (μg/mL) (converted)) [nM] | effect on MK-801 induced hyper-locomotion vs MK-801 group (MK-801 treated mice [2]; 3 mg/kg and 10 mg/kg oral) | effect on MK-801 induced hyper-locomotion vs MK-801 group (MK-801 treated mice [2]; high dose 30 mg/kg oral) | relief of MK801-induced hyperactivity (MK-801 treated mice [2]; high dose 30 mg/kg oral) [%] | effect on pre-pulse inhibition vs MK-801 group (MK-801 treated mice [3]; 75 and 83 dB pre-pulse, all tested doses 3, 10 and 30 mg/kg oral) | effect on MK-801 induced hyper-locomotion vs MK-801 group (MK-801 treated mice [2]; 3, 10 and 30 mg/kg oral, dose-dependent) | effect on pre-pulse inhibition vs MK-801 group (MK-801 treated mice [3]; 75 dB and 83 dB pre-pulse, 3 mg/kg oral)
1 | O=C(O)c1cc(O)c(O)c(OC(=O)c2cc(O)c(O)c(OC(=O)c3cc(O)c(O)c(OC(=O)c4cc(O)c(O)c(OC(=O)c5cc(O)c(O)c(OC(=O)c6cc(CCc7ccccc7C(F)(F)F)n[nH]6)c5)c4)c3)c2)c1 [Compound 74, 3-((3-((3-((3-((3,4-dihydroxy-5-((3-(2-(trifluoromethyl)phenethyl)-1H-pyrazole-5-carbonyl)oxy)benzoyl)oxy)-4,5-dihydroxybenzoyl)oxy)-4,5-dihydroxybenzoyl)oxy)-4,5-dihydroxybenzoyl)oxy)-4,5-dihydroxybenzoic acid] | 31 | significantly reduced | marginally lower locomotion activity | 69 | significantly improved PPI | > 31200 | > 31200 |  |  |  |  |  | 
2 | O=C(Oc1cc(C(=O)Oc2cc(C(=O)Oc3cc(C(=O)O[C@H]4OC[C@@H](OC(=O)c5cc(O)c(O)c(OC(=O)c6cc(O)c(O)c(OC(=O)c7cc(O)c(O)c(OC(=O)c8cc(O)c(O)c(O)c8)c7)c6)c5)[C@H](OC(=O)c5cc(O)c(O)c(OC(=O)c6cc(O)c(O)c(OC(=O)c7cc(O)c(O)c(OC(=O)c8cc(O)c(O)c(O)c8)c7)c6)c5)[C@H]4OC(=O)c4cc(O)c(O)c(OC(=O)c5cc(O)c(O)c(OC(=O)c6cc(O)c(O)c(OC(=O)c7cc(O)c(O)c(O)c7)c6)c5)c4)cc(O)c3O)cc(O)c2O)cc(O)c1O)c1cc(O)c(O)c(O)c1 [Compound 121, (2R,3R,4S,5R)-tetrahydro-2H-pyran-2,3,4,5-tetrayl tetrakis(3-((3-((3,4-dihydroxy-5-((3,4,5-trihydroxybenzoyl)oxy)benzoyl)oxy)-4,5-dihydroxybenzoyl)oxy)-4,5-dihydroxybenzoate)] | 2.5 |  |  |  |  |  |  | marginally lower locomotion activity | significantly reduced | 48 | higher potency |  | 
3 | O=C(OC[C@H]1O[C@H](OC(=O)c2cc(O)c(O)c(OC(=O)c3cc(O)c(O)c(OC(=O)c4cc(O)c(O)c(OC(=O)c5cc(O)c(O)c(O)c5)c4)c3)c2)[C@H](OC(=O)c2cc(O)c(O)c(OC(=O)c3cc(O)c(O)c(OC(=O)c4cc(O)c(O)c(OC(=O)c5cc(O)c(O)c(O)c5)c4)c3)c2)[C@@H]1OC(=O)c1cc(O)c(O)c(OC(=O)c2cc(O)c(O)c(OC(=O)c3cc(O)c(O)c(OC(=O)c4cc(O)c(O)c(O)c4)c3)c2)c1)c1cc(O)c(O)c(OC(=O)c2cc(O)c(O)c(OC(=O)c3cc(O)c(O)c(OC(=O)c4cc(O)c(O)c(O)c4)c3)c2)c1 [Compound 138, (2R,3R,4R,5R)-5-(((3-((3-((3,4-dihydroxy-5-((3,4,5-trihydroxybenzoyl)oxy)benzoyl)oxy)-4,5-dihydroxybenzoyl)oxy)-4,5-dihydroxybenzoyl)oxy)methyl)tetrahydrofuran-2,3,4-triyl tris(3-((3-((3,4-dihydroxy-5-((3,4,5-trihydroxybenzoyl)oxy)benzoyl)oxy)-4,5-dihydroxybenzoyl)oxy)-4,5-dihydroxybenzoate)] | 4 |  |  |  |  |  |  |  |  | 43 |  | significantly reduced | relieve PPI deficit
